The star is where a group is joined. Cbz = O=C(OCc1ccccc1)*; CH2F = FC*
Columns and labels:
wild-type mice [1] = assay: Alu RNA- or pAlu-induced RPE degeneration after subretinal injection (fundus photographs, ZO-1 flat mounts); assay type: in vivo; details: test agent intravitreous; for pAlu-induced RPE degeneration: subretinal pAlu
Experimental: Subretinal injection and imaging. Subretinal injections (1 μL) in mice were performed using a Pico-Injector (PLI-100, Harvard Apparatus). In vivo transfection of plasmids was achieved using 10% Neuroporter (Genlantis). Fundus imaging was performed on a TRC-50 IX camera (Topcon) linked to a digital imaging system (Sony). Immunolabeling of RPE flat mounts was performed using antibodies against human zonula occludens-1 (Invitrogen).
(§1) Fundus photography. Retinal photographs of dilated mouse eyes were taken with a TRC-50 IX camera (Topcon) linked to a digital imaging system (Sony).
(§2) Immunolabeling. Human eyes fixed in 2-4% paraformaldehyde were prepared as eyecups, cryoprotected in 30% sucrose, embedded in optimal cutting temperature compound (Tissue-Tek OCT; Sakura Finetek), and cryosectioned into 10 μm sections. Depigmentation was achieved using 0.25% potassium permanganate and 0.1% oxalic acid. Immunohistochemical staining was performed with the rabbit antibody against NLRP3 (1:100, Sigma Aldrich) or rabbit antibody against Caspase-1 (prediluted, AbCam). Isotype IgG was substituted for the primary antibody to assess the specificity of the staining. Bound antibody was detected with biotin-conjugated secondary antibodies, followed by incubation with ABC reagent and visualized by Vector Blue (Vector Laboratories). Levamisole (Vector Laboratories) was used to block endogenous alkaline phosphatase activity. Slides were washed in PBS, counterstained with neutral red (Fisher Scientific), rinsed with deionized water, air dried, and then mounted in Vectamount (Vector Laboratories). Fluorescent labeling of human tissue was performed with the rabbit antibody against PYCARD (1:50, Clone N-15, Santa Cruz Biotechnology). Immunolabeling was visualized by fluorescently conjugated anti-rabbit secondary antibody (Invitrogen). Tissue autofluorescence was quenched by incubating the sections in 0.3% Sudan black (Fisher Scientific). Sections were mounted in Vectashield with DAPI (Vector Laboratories). Mouse RPE/choroid flat mounts were fixed with 4% paraformaldehyde or 100% methanol, stained with rabbit antibodies against human zonula occludens-1 (1:100, Invitrogen) and visualized with Alexa594 (Invitrogen). All images were obtained using the Leica SP-5 or Zeiss Axio Observer Z1 microscopes.
Subretinal injection. Subretinal injections (1 μL) in mice were performed using a Pico-Injector (PLI-100, Harvard Apparatus). In vivo transfection of plasmids coding for two different Alu sequences (pAlu) or empty control vector (pNull) (Bennett et al., 2008; Kaneko et al., 2011; Shaikh et al., 1997) was achieved using 10% Neuroporter (Genlantis). AAV1-BEST1-Cre (Alexander and Hauswirth, 2008) or AAV1-BEST1-GFP were injected at […] pfu/mL and in vitro transcribed Alu RNA was injected at 0.3 mg/mL.
(§3) Drug treatments. siRNAs formulated in siRNA buffer (20 mM KCL, 0.2 mM MgCl2 in HEPES buffer at pH 7.5; Dharmacon) or phosphate buffered saline (PBS; Sigma-Aldrich); the TLR4 antagonist Ultra Pure Rhodobacter sphaeroides LPS (LPS-RS, InvivoGen), a peptide inhibitor of MyD88 homodimerization IMG-2005 (IMGENEX), control inhibitor (IMGENEX), recombinant IL-18 (Medical & Biological Laboratories), neutralizing rat antibodies against mouse IL-1β (IMGENEX), neutralizing rat antibodies against mouse IL-18 (Medical & Biological Laboratories), isotype control IgGs (R&D Systems or eBioscience as appropriate), Caspase-1 inhibitor Z-WEHD-FMK (R&D Systems), Caspase-3 inhibitor Z-DEVD-FMK (R&D Systems), Caspase control inhibitor Z-FA-FMK (R&D Systems), (2R,4R)-APDC (Enzo Life Sciences), Glipizide (Sigma-Aldrich), Glyburide (Sigma-Aldrich), and P2X7 receptor antagonist A438079 (Tocris Bioscience) were dissolved in phosphate buffered saline (PBS; Sigma-Aldrich) or dimethyl sulfoxide (DMSO; Sigma-Aldrich), and injected into the vitreous humor in a total volume of 1 μL with a 33-gauge Exmire microsyringe (Ito Corporation). […]

human RPE cells = tested on: human RPE cells
Experimental: Cell viability. Cell viability measurements were performed using the CellTiter 96 AQueous One Solution Cell Proliferation Assay (Promega) in according to the manufacturer's instructions.
Cell culture. All cell cultures were maintained at 37° C. and 5% CO2. Primary mouse RPE cells were isolated as previously described (Yang et al., 2009) and grown in Dulbecco Modified Eagle Medium (DMEM) supplemented with 20% FBS and standard antibiotics concentrations. Primary human RPE cells were isolated as previously described (Yang et al., 2008) and maintained in DMEM supplemented with 10% FBS and antibiotics. HeLa cells were maintained in DMEM supplemented with 20% FBS and standard antibiotics concentrations. THP-1 cells were cultured in RPMI 1640 medium supplemented with 10% FBS and antibiotics.
Transient transfection. Human or mouse RPE cells were transfected with pUC19, pAlu, pCDNA3.1/Dicer-FLAG, pCDNA3.1, Alu RNA, NLRP3 siRNA sense, PYCARD siRNA sense, MyD88 siRNA sense, DICER1 antisense oligonucleotide (AS), control (for DICER1) AS, Alu AS, and control (for Alu) AS using Lipofectamine 2000 (Invitrogen) according to the manufacturer's instructions.
Cell viability. MTS assays were performed using the CellTiter 96 AQueous One Solution Cell Proliferation Assay (Promega) according to the manufacturer's instructions. For examining the cytoprotective effect of glycine in Alu RNA induced cell death, human RPE cells were transfected with pNull/pAlu. At 6 h post-transfection the cells were incubated with complete media containing glycine (5 mM) or vehicle, and cell viability was assessed after 24 h. Similarly, human RPE cells primed with LPS (5 μg/ml for 6 h) were treated with ATP (25 μM) in the presence of glycine containing media (5 mM). 30 min post ATP cell viability was assessed as described above.

wild-type mice [2] = assay: Laser-induced choroidal neovascularization; assay type: in vivo; details: intravitreous injection
IL-18 = assay: Western blot of IL-18 maturation in RPE cell lysates of wild-type mice; assay type: in vivo; details: inhibitor intravitreous
Experimental: as §3
Western blotting. […] Protein concentrations were determined using a Bradford assay kit (Bio-Rad) with bovine serum albumin as a standard. […] Protein loading was assessed by immunoblotting using an anti-Vinculin antibody (1:1,000; Sigma-Aldrich). […]

IRAK1/4 = assay: Western blot of phosphorylated IRAK1/4 in human RPE cells; assay type: cell-based; details: normalized to Vinculin
Experimental: (§4) Protein abundance and activity. Protein abundance was assessed by Western blot analysis using primary antibodies recognizing Caspase-1 (1:500; Invitrogen), pIRAK1 (1:500; Thermo Scientific), pIRAK4 (1:500, Abbomax, Inc), PYCARD (1:200, Santa Cruz Biotechnology), NLRP3 (1:500, Enzo Life Sciences) and Vinculin (1:1,000; Sigma-Aldrich). Caspase-1 activity was visualized using Caspalux1 E1D2 (OncoImmunin) reagent according to the manufacturer's instructions.
Western blotting. Tissues or cells were homogenized in lysis buffer (10 mM Tris base, pH 7.4, 150 mM NaCl, 1 mM EDTA, 1 mM EGTA, 1% Triton X-100, 0.5% NP-40, protease and phosphatase inhibitor cocktail (Roche)). Protein concentrations were determined using a Bradford assay kit (Bio-Rad) with bovine serum albumin as a standard. Proteins (40-100 μg) were run on NuPAGE Bis-Tris gels (Invitrogen) and transferred to Immun-Blot PVDF membranes (Bio-Rad). Cells were scraped in hot Laemmli buffer (62.5 mM Tris base, pH 6.8, 2% SDS, 5% 2-Mercaptoethanol, 10% Glycerol, 0.01% Bromophenol Blue). Samples were boiled and run on 4-20% NuPAGE Tris-Glycine gels (Invitrogen). […] Protein loading was assessed by immunoblotting using an anti-Vinculin antibody (1:1,000; Sigma-Aldrich). […]

Caspase-1 = target: T1, Caspase-1 (Homo sapiens, UniProt P29466); assay: Caspase-1 activation in cultured cells (western blot p20, Caspalux1 substrate cleavage); assay type: cell-based; details: human RPE cells; Caspalux1
T1 construct: endogenous in cells; host or cells: primary human RPE cells; also THP-1 and HeLa cells
T1 sequence (P29466 120-297 limits assumed): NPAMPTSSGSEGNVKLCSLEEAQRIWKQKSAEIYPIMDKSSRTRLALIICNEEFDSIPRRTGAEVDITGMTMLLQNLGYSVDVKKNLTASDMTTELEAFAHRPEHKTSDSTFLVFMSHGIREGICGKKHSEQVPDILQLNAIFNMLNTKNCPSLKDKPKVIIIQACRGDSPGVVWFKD
T1 sequence (P29466 317-404 limits assumed): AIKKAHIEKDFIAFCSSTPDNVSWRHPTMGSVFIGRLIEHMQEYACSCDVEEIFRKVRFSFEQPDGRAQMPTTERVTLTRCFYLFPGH
Experimental: as §4
Western blotting. Tissues or cells were homogenized in lysis buffer (10 mM Tris base, pH 7.4, 150 mM NaCl, 1 mM EDTA, 1 mM EGTA, 1% Triton X-100, 0.5% NP-40, protease and phosphatase inhibitor cocktail (Roche)). Protein concentrations were determined using a Bradford assay kit (Bio-Rad) with bovine serum albumin as a standard. Proteins (40-100 μg) were run on NuPAGE Bis-Tris gels (Invitrogen) and transferred to Immun-Blot PVDF membranes (Bio-Rad). Cells were scraped in hot Laemmli buffer (62.5 mM Tris base, pH 6.8, 2% SDS, 5% 2-Mercaptoethanol, 10% Glycerol, 0.01% Bromophenol Blue). Samples were boiled and run on 4-20% NuPAGE Tris-Glycine gels (Invitrogen). The transferred membranes were blocked for 1 h at RT and incubated with antibodies against human Caspase-1 (1:500; Invitrogen), mouse Caspase1 (1:500; MBL), NLRP3 (1:1000; Enzo Life Sciences), PYCARD (1:1000, RayBiotech), phospho-IRAK1 (S376) (1:500, Thermo Scientific), phospho-IRAK4 (T345) (1:500, AbboMax), DICER1 (1:2,000; Bethyl), MyD88 (1:1,000; Cell Signaling), and mouse IL-18 (1:200; MBL) at 4° C. overnight. Protein loading was assessed by immunoblotting using an anti-Vinculin antibody (1:1,000; Sigma-Aldrich). The secondary antibodies were used (1:5,000) for 1 h at RT. […]
Caspase-1 activity. […] Caspalux1E1D2 signal was quantified reading the fluorescence (excitation 552 nm, emission 580 nm) using a Synergy 4 reader (Biotek). Quantification of fluorescence from images was performed by converting images into grayscale in Adobe Photoshop CS5, and measuring the integrated density of black and white images using ImageJ software (NIH) (Bogdanovich et al., 2008).

Dicer1f/f mice = assay: RPE degeneration induced by subretinal AAV1-BEST1-Cre (DICER1 loss); assay type: in vivo; details: inhibitor intravitreous
Experimental: as §2, with “Sections were mounted in Vectashield with DAPI (Vector Laboratories). Mouse RPE/choroid flat mounts were fixed with 4% paraformaldehyde or 100% methanol, stained with rabbit antibodies against human zonula occludens-1 (1:100, Invitrogen) and visualized with Alexa594 (Invitrogen). All images were obtained using the Leica SP-5 or Zeiss Axio Observer Z1 microscopes.” left out

mice = assay: RPE degeneration induced by intravitreous recombinant IL-18; assay type: in vivo; details: for RPE degeneration induced by recombinant IL-18: intravitreous
Experimental: as §1
as §2, with “microscopes. […]” for “microscopes.”

Caspase-3 = Caspase-3 activation in the RPE of wild-type mice; assay type: in vivo; details: IL-18 alone
Experimental: Drug treatments. siRNAs formulated in siRNA buffer (20 mM KCL, 0.2 mM MgCl2 in HEPES buffer at pH 7.5; Dharmacon) or phosphate buffered saline (PBS; Sigma-Aldrich); the TLR4 antagonist Ultra Pure Rhodobacter sphaeroides LPS (LPS-RS, InvivoGen), a peptide inhibitor of MyD88 homodimerization IMG-2005 (IMGENEX), control inhibitor (IMGENEX), recombinant IL-18 (Medical & Biological Laboratories), neutralizing rat antibodies against mouse IL-1β (IMGENEX), neutralizing rat antibodies against mouse IL-18 (Medical & Biological Laboratories), isotype control IgGs (R&D Systems or eBioscience as appropriate), Caspase-1 inhibitor Z-WEHD-FMK (R&D Systems), Caspase-3 inhibitor Z-DEVD-FMK (R&D Systems), Caspase control inhibitor Z-FA-FMK (R&D Systems), (2R,4R)-APDC (Enzo Life Sciences), Glipizide (Sigma-Aldrich), Glyburide (Sigma-Aldrich), and P2X7 receptor antagonist A438079 (Tocris Bioscience) were dissolved in phosphate buffered saline (PBS; Sigma-Aldrich) or dimethyl sulfoxide (DMSO; Sigma-Aldrich), and injected into the vitreous humor in a total volume of 1 μL with a 33-gauge Exmire microsyringe (Ito Corporation). […] As a control, Luc siRNA-chol (17+2 nt) was used with identical dosages.
Caspase-3 activity. The caspase-3 activity was measured using Caspase-3 Fluorimetric Assay (R&D Systems) according to the manufacturer's instruction.

Molecule: Clc1cccc(-c2nnnn2Cc2cccnc2)c1Cl [A438079]
- pAlu-induced RPE degeneration (wild-type mice [1]): blocked

Molecule: O=C(Nc1nc2ccccc2n1CCN1CCOCC1)c1cccc([N+](=O)[O-])c1 [N-(2-Morpholinylethyl)-2-(3-nitrobenzoylamido)-benzimidazole]
- Alu RNA-induced cytotoxicity, viability of human RPE cells (human RPE cells): protects
- pAlu-induced cytotoxicity, viability of human RPE cells (human RPE cells): protects
- laser-induced choroidal neovascularization (wild-type mice [2]): reduced
- Alu RNA-induced RPE degeneration (wild-type mice [1]; subretinal Alu RNA): blocked

Molecule: COc1ccc(Cl)cc1C(=O)NCCc1ccc(S(=O)(=O)NC(=O)NC2CCCCC2)cc1 [glyburide, Glyburide]
- pAlu-induced RPE degeneration (wild-type mice [1]): inhibited

Molecule: NCC(=O)O [glycine]
- human RPE cell death induced by LPS+ATP (human RPE cells; LPS 5 μg/ml 6 h, ATP 25 μM, glycine 5 mM, 30 min post ATP): inhibited

Molecule: Cbz-WEHD-CH2F
- pAlu-induced IL-18 maturation (IL-18): blocked
- pAlu-induced RPE degeneration (wild-type mice [1]): blocked
- Alu RNA-induced phosphorylation of IRAK1/4 (IRAK1/4): reduced
- Alu RNA-induced fluorescent substrate cleavage (Caspase-1 activity) (Caspase-1): blocked
- AAV1-BEST1-Cre-induced RPE degeneration (Dicer1f/f mice): blocked

Molecule: Z-DEVD-FMK
- IL-18-induced RPE degeneration (mice; wild-type mice, inhibitor intravitreous): blocked

B1: Recombinant IL-18: recombinant IL-18 (Medical & Biological Laboratories) (protein, UniProt P70380 36-192, looked up)
Interleukin-18: NFGRLHCTTAVIRNINDQVLFVDKRQPVFEDMTDIDQSASEPQTRLIIYMYKDSEVRGLAVTLSVKDSKMSTLSCKNKIISFEEMDPPENIDDIQSDLIFFQKRVPGHNKMEFESSLYEGHFLACQKEDDAFKLILKKKDENGDKSVMFTLTNLHQS
- RPE degeneration induced by recombinant IL-18 (mice; Casp1−/− mice): induced RPE degeneration
- RPE degeneration induced by recombinant IL-18 (mice; wild-type mice): induced RPE degeneration
- Caspase-3 activation in the RPE (Caspase-3): induced Caspase-3 activation

— patent publication US11730743B2, “Protection of cells from degeneration and treatment of geographic atrophy” (University of Kentucky Research Foundation, priority 2012, dated 2023)
